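Interpolation was linear, between the two tested concentrations surrounding the appropriate level; five concentrations were tested over 48 hours in 96-well plates. GI50: concentration for 50% inhibition of growth.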 Activity calls are given as the source filed them. Cut-off read from the data, not from the text of the source: active = GI50 up to about 1.1 µM and inactive = higher.
Experiments:
Experiment in all cases: inhibition of tumour cell growth, NCI panel, 48 h
SNB-75 = system: SNB-75
ACHN = system: ACHN
MDA-MB-231 = system: MDA-MB-231
HCT-116 = system: HCT-116
HOP-62 = system: HOP-62
SF-295 = system: SF-295
EKVX = system: EKVX
SK-OV-3 = system: SK-OV-3
U-251 = system: U-251
UACC-62 = system: UACC-62
K562 = system: K562
NCI-H522 = system: NCI-H522
Hs-578T = system: Hs-578T
IGROV-1 = system: IGROV-1
PC-3 = system: PC-3
NCI/ADR-RES = system: NCI/ADR-RES
MDA-MB-435 = system: MDA-MB-435
OVCAR-4 = system: OVCAR-4
COLO 205 = system: COLO 205
SF-539 = system: SF-539

Measured: GI50

Cn1c2ccccc2n2c3ncccc3c(=O)c(C#N)c12
inactive: SNB-75 12.2 µM | ACHN 3.09 µM | MDA-MB-231 17.9 µM | HCT-116 4.81 µM | HOP-62 5.18 µM | SF-295 7.69 µM | EKVX 32.8 µM | SK-OV-3 17.3 µM | U-251 6.38 µM | UACC-62 8.41 µM | K562 > 100 µM | NCI-H522 9.02 µM | Hs-578T 18.9 µM | IGROV-1 5.32 µM | PC-3 19.5 µM | NCI/ADR-RES 16.3 µM | MDA-MB-435 26.7 µM | OVCAR-4 30.7 µM | COLO 205 3.91 µM

CCOC(=O)c1c(N2CCOCC2)[nH]c(=O)c(C(c2ccco2)c2c(O)c(C(=O)OCC)c(N3CCOCC3)[nH]c2=O)c1O
inactive: SNB-75 > 100 µM | ACHN > 100 µM | MDA-MB-231 > 100 µM | HCT-116 > 100 µM | HOP-62 > 100 µM | SF-295 > 100 µM | SF-539 > 100 µM | EKVX > 100 µM | SK-OV-3 > 100 µM | U-251 > 100 µM | UACC-62 > 100 µM | K562 > 100 µM | NCI-H522 > 100 µM | Hs-578T > 100 µM | PC-3 > 100 µM | NCI/ADR-RES > 100 µM | MDA-MB-435 > 100 µM | OVCAR-4 > 100 µM | COLO 205 > 100 µM

Cc1ccc(NC(=O)CC(=O)N2N=C(N3CCCCC3)CC2c2ccccc2)cc1 (stereo not drawn)
inactive: SNB-75 > 100 µM | ACHN > 100 µM | MDA-MB-231 > 100 µM | HCT-116 > 100 µM | HOP-62 > 100 µM | SF-295 > 100 µM | EKVX > 100 µM | U-251 > 100 µM | UACC-62 > 100 µM | NCI-H522 > 100 µM | Hs-578T > 100 µM | IGROV-1 > 100 µM | PC-3 > 100 µM | NCI/ADR-RES > 100 µM | MDA-MB-435 > 100 µM | OVCAR-4 > 100 µM | COLO 205 > 100 µM

O=c1[nH]c(=O)n(C2CC(O)C(CO)O2)cc1OC/C=C/Cc1ccccc1 (stereo not drawn)
inactive: SNB-75 > 100 µM | ACHN > 100 µM | MDA-MB-231 > 100 µM | HCT-116 > 100 µM | HOP-62 > 100 µM | SF-295 > 100 µM | EKVX > 100 µM | SK-OV-3 > 100 µM | U-251 > 100 µM | UACC-62 > 100 µM | K562 > 100 µM | NCI-H522 > 100 µM | Hs-578T > 100 µM | IGROV-1 > 100 µM | PC-3 > 100 µM | NCI/ADR-RES > 100 µM | MDA-MB-435 > 100 µM | OVCAR-4 > 100 µM | COLO 205 > 100 µM

COc1cc(C2=NNC(=O)c3ccccc3N2c2nc(-c3cccs3)nc3ccc(Br)cc23)cc(OC)c1OC
inactive: SNB-75 55 µM | ACHN 7.11 µM | MDA-MB-231 17.9 µM | HCT-116 12.4 µM | HOP-62 15.6 µM | SF-295 5.06 µM | SF-539 10.9 µM | EKVX 13 µM | SK-OV-3 65.6 µM | U-251 6.1 µM | UACC-62 12.4 µM | NCI-H522 9.06 µM | Hs-578T 5.48 µM | IGROV-1 10.8 µM | PC-3 10.3 µM | NCI/ADR-RES 4.91 µM | MDA-MB-435 6.82 µM | OVCAR-4 4.55 µM | COLO 205 5.24 µM

Cc1cc(C)c(S(=O)(=O)N2CCCN(S(=O)(=O)c3c(C)cc(C)cc3C)OCCCON(S(=O)(=O)c3c(C)cc(C)cc3C)CCCN(S(=O)(=O)c3c(C)cc(C)cc3C)OCCCO2)c(C)c1
inactive: SNB-75 70.3 µM | ACHN > 100 µM | MDA-MB-231 > 100 µM | HCT-116 > 100 µM | HOP-62 > 100 µM | SF-295 > 100 µM | SF-539 > 100 µM | EKVX > 100 µM | SK-OV-3 > 100 µM | U-251 > 100 µM | UACC-62 > 100 µM | K562 > 100 µM | NCI-H522 > 100 µM | Hs-578T 51.8 µM | IGROV-1 > 100 µM | PC-3 > 100 µM | NCI/ADR-RES > 100 µM | MDA-MB-435 > 100 µM | OVCAR-4 > 100 µM | COLO 205 > 100 µM

O=C(/C=C1\C[C@H]2C=Nc3ccccc3C(=O)N2C1)NCCCNC(=O)/C=C1\C[C@H]2C=Nc3ccccc3C(=O)N2C1
inactive: SNB-75 16.2 µM | ACHN 14.9 µM | MDA-MB-231 16.1 µM | HCT-116 16 µM | HOP-62 16.6 µM | SF-295 19 µM | SF-539 18.3 µM | EKVX 19.8 µM | SK-OV-3 18.5 µM | U-251 13.6 µM | UACC-62 15.7 µM | K562 5.96 µM | NCI-H522 1.96 µM | Hs-578T 32 µM | IGROV-1 17.3 µM | PC-3 17.6 µM | NCI/ADR-RES 23.3 µM | MDA-MB-435 19.1 µM | OVCAR-4 18.2 µM | COLO 205 12.9 µM

Reference: ChEMBL document CHEMBL1201862, “PubChem BioAssay data set” (2004)
